How the values were obtained:
[1] = Cytotoxicity against human SNB19 cells after 48 hrs by SRB assay; format: functional; conditions: SNB-19, 48 h
[2] = Cytotoxicity against human UO31 cells assessed as cell growth at 10^-5 M after 48 hrs by SRB assay; format: functional; conditions: UO-31, 48 h, read-out: Activity
HT-29 = experiment: Cytotoxicity against human HT-29 cells assessed as cell growth at 10^-5 M after 48 hrs by SRB assay; format: functional; conditions: HT-29, 48 h, read-out: Activity
M14 = experiment: Cytotoxicity against human M14 cells after 48 hrs by SRB assay; format: functional; conditions: M14, 48 h
[3] = Antiproliferative activity against human DU145 cells at 10'5 M; format: functional, DU-145
[4] = Cytotoxicity against human HCC2998 cells after 48 hrs by SRB assay; format: functional; conditions: HCC 2998, 48 h
[5] = Cytotoxicity against human UACC62 cells assessed as cell growth at 10^-5 M after 48 hrs by SRB assay; format: functional; conditions: UACC-62, 48 h, read-out: Activity
[6] = Cytotoxicity against human IGROV1 cells after 48 hrs by SRB assay; format: functional; conditions: IGROV-1, 48 h
[7] = Cytotoxicity against human SF539 cells assessed as cell growth at 10^-5 M after 48 hrs by SRB assay; format: functional; conditions: SF-539, 48 h, read-out: Activity
SK-MEL-2 = experiment: Cytotoxicity against human SK-MEL-2 cells after 48 hrs by SRB assay; format: functional; conditions: SK-MEL-2, 48 h
[8] = Cytotoxicity against human HOP92 cells after 48 hrs by SRB assay; format: functional; conditions: HOP-92, 48 h
[9] = Cytotoxicity against human HCT15 cells assessed as cell growth at 10^-5 M after 48 hrs by SRB assay; format: functional; conditions: HCT-15, 48 h, read-out: Activity
[10] = Cytotoxicity against human DU145 cells assessed as cell growth at 10^-5 M after 48 hrs by SRB assay; format: functional; conditions: DU-145, 48 h, read-out: Activity
[11] = Antiproliferative activity against human Hs 578T cells at 10'5 M; format: functional
Albumin [12] = molecular target: T1, Albumin (Homo sapiens, UniProt P02768); experiment: Binding affinity to human serum albumin at 0.25 uM at 303 K by fluorescence microscopic analysis in the presence of Co2+; format: ADME; conditions: isolated protein
T1 sequence (P02768 whole entry): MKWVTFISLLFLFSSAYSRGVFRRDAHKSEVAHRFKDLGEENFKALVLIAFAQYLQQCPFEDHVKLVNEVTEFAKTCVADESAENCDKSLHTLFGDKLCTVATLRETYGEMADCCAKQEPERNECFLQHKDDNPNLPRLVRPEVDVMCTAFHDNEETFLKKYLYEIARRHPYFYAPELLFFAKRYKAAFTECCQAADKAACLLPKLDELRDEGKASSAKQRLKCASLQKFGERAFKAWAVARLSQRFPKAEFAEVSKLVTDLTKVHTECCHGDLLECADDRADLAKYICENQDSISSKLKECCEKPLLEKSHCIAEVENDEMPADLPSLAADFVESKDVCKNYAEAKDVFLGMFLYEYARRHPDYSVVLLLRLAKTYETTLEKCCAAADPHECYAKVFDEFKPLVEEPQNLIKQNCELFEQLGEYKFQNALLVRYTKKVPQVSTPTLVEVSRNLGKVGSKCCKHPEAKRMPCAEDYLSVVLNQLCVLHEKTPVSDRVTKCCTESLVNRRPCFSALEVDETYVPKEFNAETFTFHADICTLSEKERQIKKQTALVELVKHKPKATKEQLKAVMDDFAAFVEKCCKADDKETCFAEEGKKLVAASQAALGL

ACHN = experiment: Cytotoxicity against human ACHN cells assessed as cell growth at 10^-5 M after 48 hrs by SRB assay; format: functional; conditions: read-out: Activity
MCF7 = experiment: Antiproliferative activity against human MCF7 cells at 10'5 M; format: functional
[13] = Cytotoxicity against human Caki1 cells assessed as cell growth at 10^-5 M after 48 hrs by SRB assay; format: functional; conditions: CAKI-1, 48 h, read-out: Activity
[14] = Antiproliferative activity against human SNB75 cells at 10'5 M; format: functional, SNB-75
[15] = Cytotoxicity against human BT549 cells assessed as cell growth at 10^-5 M after 48 hrs by SRB assay; format: functional; conditions: BT-549, 48 h, read-out: Activity
[16] = Cytotoxicity against human COLO205 cells assessed as cell growth at 10^-5 M after 48 hrs by SRB assay; format: functional; conditions: COLO 205, 48 h, read-out: Activity
A498 = experiment: Cytotoxicity against human A498 cells assessed as cell growth at 10^-5 M after 48 hrs by SRB assay; format: functional; conditions: A498, 48 h, read-out: Activity
[17] = Cytotoxicity against human OVCAR3 cells after 48 hrs by SRB assay; format: functional; conditions: OVCAR-3, 48 h
T47D = experiment: Cytotoxicity against human T47D cells assessed as cell growth at 10^-5 M after 48 hrs by SRB assay; format: functional; conditions: read-out: Activity
[18] = Antiproliferative activity against human TK10 cells at 10'5 M; format: functional, TK-10
A549 = experiment: Cytotoxicity against human A549 cells assessed as cell growth at 10^-5 M after 48 hrs by SRB assay; format: functional; conditions: A549, 48 h, read-out: Activity
[19] = Cytotoxicity against human SNB19 cells assessed as cell growth at 10^-5 M after 48 hrs by SRB assay; format: functional; conditions: SNB-19, 48 h, read-out: Activity
[20] = Cytotoxicity against human Caki1 cells after 48 hrs by SRB assay; format: functional; conditions: CAKI-1, 48 h
SN12C = experiment: Cytotoxicity against human SN12C cells assessed as cell growth at 10^-5 M after 48 hrs by SRB assay; format: functional; conditions: read-out: Activity
[21] = Antiproliferative activity against human IGROV1 cells at 10'5 M; format: functional, IGROV-1
NCI-H460 = experiment: Antiproliferative activity against human NCI-H460 cells at 10'5 M; format: functional
KM12 = experiment: Cytotoxicity against human KM12 cells assessed as cell growth at 10^-5 M after 48 hrs by SRB assay; format: functional; conditions: KM12, 48 h, read-out: Activity
[22] = Cytotoxicity against human HOP62 cells assessed as cell growth at 10^-5 M after 48 hrs by SRB assay; format: functional; conditions: HOP-62, 48 h, read-out: Activity
[23] = Cytotoxicity against human HL-60(TB) cells assessed as cell growth at 10^-5 M after 48 hrs by SRB assay; format: functional; conditions: HL-60, 48 h, read-out: Activity
[24] = Cytotoxicity against human UACC62 cells after 48 hrs by SRB assay; format: functional; conditions: UACC-62, 48 h
[25] = Cytotoxicity against human OVCAR8 cells assessed as cell growth at 10^-5 M after 48 hrs by SRB assay; format: functional; conditions: OVCAR-8, 48 h, read-out: Activity
Albumin [26] = molecular target: T1, Albumin; experiment: Binding affinity to human serum albumin at 0.25 to 2 uM at 308 K by fluorescence microscopic analysis; format: ADME; conditions: isolated protein
[27] = Cytotoxicity against human MOLT4 cells after 48 hrs by SRB assay; format: functional; conditions: MOLT-4, 48 h
Albumin [28] = molecular target: T1, Albumin; experiment: Binding affinity to human serum albumin assessed as fluorescence quenching in steady state at 0.25 uM at 303 K by fluorescence microscopic analysis; format: ADME; conditions: isolated protein
[29] = Cytotoxicity against human SF295 cells after 48 hrs by SRB assay; format: functional; conditions: SF-295, 48 h
[30] = Antiproliferative activity against human MOLT4 cells at 10'5 M; format: functional, MOLT-4
NCI-H23 = experiment: Cytotoxicity against human NCI-H23 cells assessed as cell growth at 10^-5 M after 48 hrs by SRB assay; format: functional; conditions: NCI-H23, 48 h, read-out: Activity
[31] = read-out: LC50 (the source's name)

O=C(/C=C/c1ccccc1)n1c(-c2ccc(Cl)cc2)nc2ccccc21
GI50 [1]: 1.47 µM
TGI [1]: 2.92 µM
CC50 [1, 31]: 5.79 µM
growth at 10 µM [2]: -39%
growth at 10 µM (HT-29): -40.6%
GI50 (M14): 1.63 µM
TGI (M14): 5.74 µM
CC50 (M14; [31]): 26 µM
growth inhibition (GI) [3]: 88.87%
GI50 [4]: 1.41 µM
TGI [4]: 2.78 µM
CC50 [4, 31]: 5.49 µM
growth at 10 µM [5]: -84.7%
GI50 [6]: 1.27 µM
TGI [6]: 2.88 µM
CC50 [6, 31]: 6.53 µM
growth at 10 µM [7]: -48.4%
GI50 (SK-MEL-2): 1.11 µM
TGI (SK-MEL-2): 3.04 µM
CC50 (SK-MEL-2; [31]): 8.32 µM
GI50 [8]: 2.72 µM
TGI [8]: 5.17 µM
CC50 [8, 31]: 9.81 µM
growth at 10 µM [9]: -24.8%
growth at 10 µM [10]: 11.1%
growth inhibition (GI) [11]: 80.03%
K (Albumin [12]): 4.09 ×10³ /mol
growth at 10 µM (ACHN): -49.9%
growth inhibition (GI) (MCF7): 89.71%
growth at 10 µM [13]: -39.5%
growth inhibition (GI) [14]: 81.93%
growth at 10 µM [15]: -50.5%
growth at 10 µM [16]: -60.8%
growth at 10 µM (A498): -14.6%
GI50 [17]: 1.95 µM
TGI [17]: 4.63 µM
CC50 [17, 31]: 13.4 µM
growth at 10 µM (T47D): -4.25%
growth inhibition (GI) [18]: 81.42%
growth at 10 µM (A549): -4.99%
growth at 10 µM [19]: 41.1%
GI50 [20]: 1.18 µM
TGI [20]: 10 µM
CC50 [20, 31]: 31.7 µM
growth at 10 µM (SN12C): -48.5%
growth inhibition (GI) [21]: 89.62%
growth inhibition (GI) (NCI-H460): 99.46%
growth at 10 µM (KM12): -62.9%
growth at 10 µM [22]: -48.8%
growth at 10 µM [23]: -3.97%
GI50 [24]: 1.47 µM
TGI [24]: 3.42 µM
CC50 [24, 31]: 7.93 µM
growth at 10 µM [25]: -31.3%
K (Albumin [26]): 6.27 ×10³ /mol
GI50 [27]: 1.13 µM
TGI [27]: 6.73 µM
CC50 [27, 31]: > 100 µM
K (Albumin [28]): 5.68 ×10³ /mol
GI50 [29]: 2.1 µM
TGI [29]: 6.14 µM
CC50 [29, 31]: 42.5 µM
growth inhibition (GI) [30]: 78.07%
growth at 10 µM (NCI-H23): -24.5%

Source: ChEMBL document CHEMBL3769371, “1-[(2E)-3-Phenylprop-2-enoyl]-1H-benzimidazoles as anticancer agents: synthesis, crystal structure analysis and binding studies of the most potent anticancer molecule with serum albumin” (Medchemcomm, 2015)
